Assay results: ChEMBL document CHEMBL1144144, “Methylsulfomycin I, a new cyclic peptide antibiotic from a Streptomyces sp. HIL Y-9420704” (1999)
≈ marks a conversion by molar mass, not a printed value.

Assays:
Enterococcus equinus [1] = assay: Antimicrobial activity against vancomycin and teicoplanin-resistant Enterococcus equinus relative to vancomycin
Enterococcus = assay: Antimicrobial activity against Enterococcus species; assay type: functional
Enterococcus faecium [2] = assay: Antimicrobial activity against vancomycin and teicoplanin-resistant Enterococcus faecium P-1 relative to vancomycin; assay type: functional
Enterococcus faecium [3] = assay: Antimicrobial activity against vancomycin and teicoplanin-resistant Enterococcus faecium R-1 relative to vancomycin; assay type: functional
Staphylococcus aureus = assay: Antimicrobial activity against methicillin-resistant Staphylococcus aureus; assay type: functional
[4] = test system: Staphylococcus epidermidis; assay: Antimicrobial activity against teicoplanin-resistant Staphylococcus epidermidis 823 relative to vancomycin; assay type: functional
Enterococcus faecium [5] = assay: Antimicrobial activity against vancomycin and teicoplanin-resistant Enterococcus faecium R-2 relative to vancomycin; assay type: functional
[6] = test system: Staphylococcus haemolyticus; assay: Antimicrobial activity against teicoplanin-sensitive Staphylococcus haemolyticus 712 relative to vancomycin; assay type: functional
[7] = test system: Staphylococcus haemolyticus; assay: Antimicrobial activity against teicoplanin-resistant Staphylococcus haemolyticus 712 relative to vancomycin; assay type: functional
[8] = test system: Staphylococcus epidermidis; assay: Antimicrobial activity against teicoplanin-sensitive Staphylococcus epidermidis 825 relative to vancomycin; assay type: functional
[9] = test system: Staphylococcus epidermidis; assay: Antimicrobial activity against teicoplanin-sensitive Staphylococcus epidermidis 825; assay type: functional
[10] = test system: Staphylococcus haemolyticus; assay: Antimicrobial activity against teicoplanin-sensitive Staphylococcus haemolyticus 712; assay type: functional
Enterococcus equinus [11] = assay: Antimicrobial activity against vancomycin and teicoplanin-resistant Enterococcus equinus
Enterococcus faecium [12] = assay: Antimicrobial activity against vancomycin and teicoplanin-resistant Enterococcus faecium P-1; assay type: functional
Enterococcus faecium [13] = assay: Antimicrobial activity against vancomycin and teicoplanin-resistant Enterococcus faecium R-1; assay type: functional
Enterococcus faecium [14] = assay: Antimicrobial activity against vancomycin and teicoplanin-resistant Enterococcus faecium R-2; assay type: functional

Row | SMILES | fold change (FC) (Enterococcus equinus [1]) | MIC (Enterococcus) [µg/mL] | fold change (FC) (Enterococcus faecium [2]) | fold change (FC) (Enterococcus faecium [3]) | MIC (Staphylococcus aureus) [µg/mL] | fold change (FC) [4] | fold change (FC) (Enterococcus faecium [5]) | fold change (FC) [6] | fold change (FC) [7] | fold change (FC) [8] | MIC [9] [µg/mL] | MIC [10] [µg/mL] | MIC (Enterococcus equinus [11]) [µg/mL] | MIC (Enterococcus faecium [12]) [µg/mL] | MIC (Enterococcus faecium [13]) [µg/mL] | MIC (Enterococcus faecium [14]) [µg/mL]
1 | C=C(NC(=O)C(=C)NC(=O)C(=C)NC(=O)c1ccc2c(n1)-c1nc(oc1C)C(=C)NC(=O)C(=C)NC(=O)c1nc(oc1C)/C(=C/C)NC(=O)c1csc(n1)[C@H](OC)NC(=O)c1nc(oc1C)/C(=C\C(C)O)NC(=O)[C@H]([C@@H](C)O)NC(=O)c1csc-2n1)C(N)=O (stereo partly specified) [METHYLSULFOMYCIN I] | > 800 | 0.06 (≈ 0.0476 µM) | > 800 | > 800 | 0.06 (≈ 0.0476 µM) | 12.4 | > 800 | 6.2 | 12.4 | 6.2 |  |  |  |  |  | 
2 | CN[C@H](CC(C)C)C(=O)N[C@H]1C(=O)N[C@@H](CC(N)=O)C(=O)N[C@H]2C(=O)N[C@H]3C(=O)N[C@H](C(=O)N[C@H](C(=O)O)c4cc(O)cc(O)c4-c4cc3ccc4O)[C@H](O)c3ccc(c(Cl)c3)Oc3cc2cc(c3O[C@@H]2O[C@H](CO)[C@@H](O)[C@H](O)[C@H]2O[C@H]2C[C@](C)(N)[C@H](O)[C@H](C)O2)Oc2ccc(cc2Cl)[C@H]1O [VANCOMYCIN] |  |  |  |  |  |  |  |  |  |  | 0.78 (≈ 0.538 µM) | 0.78 (≈ 0.538 µM) | > 100 | > 100 | > 100 | > 100
